Non-standard residues stand in square brackets, D forms with d. Residues, ends and D or L forms follow the SMILES beside them. ξ: configuration not given here. ξNMeBmt = C/C=C/C[C@@H](C)[C@@H](O)C(NC)C(=O)O; NMeL = CN[C@@H](CC(C)C)C(=O)O; NMeV = CN[C@H](C(=O)O)C(C)C; NMeA = CN[C@@H](C)C(=O)O; Abu = CC[C@H](N)C(=O)O; Sar = CNCC(=O)O
B1: Tat protein: Purified Tat protein (HIV-1) (protein, UniProt P04608 1-86, looked up)
Protein Tat: MEPVDPRLEPWKHPGSQPKTACTNCYCKKCCFHCQVCFITKALGISYGRKKRRQRRRAHQNSQTHQASLSKQPTSQPRGDPTGPKE

Columns and labels:
[1] = test system: calcineurin (CN); settings: complex with FKBP; cited from earlier work
[2] = test system: CyPs; settings: Sigal et al., 1991; cited from earlier work
[3] = test system: T cell activation; settings: Sigal et al., 1991; cited from earlier work
[4] = test system: FKBP; settings: Bierer et al., 1990; cited from earlier work
[5] = test system: CyPB; assay: Yeast GAL4 two hybrid, Gag/mutant fusions versus clone 4.1 (CyPB); format: cell-based, Human; settings: versus 4.1 / CyPB
From the text: (§1) FIG. 2. The Effect of Mutations in Pr55^gag on the Ability of Gag-GAL4 Fusion Proteins to Activate β-Gal Activity in Yeast Cotransformed with GAL4-CyP Fusion Protein Expression Plasmids. Mutant forms of Pr55^gag were subcloned into pGAL4DB-HG. A schematic of the gag coding sequence is shown, and sequence numbers indicated the nucleotide position in the HXB2C provirus with respect to the 5' end of the 5' long terminal repeat. The names of the mutants indicate the nucleotide sequences deleted or the location of linker inserts. Coding sequences retained by the mutants are shown with a box. Linker insertion mutations are denoted with a triangle. Yeast strain GGY1::171, which carries a GAL1-lacZ fusion gene integrated into the chromosome, was cotransformed with each mutant plasmid against plasmid 2.1 and against plasmid 4.1. Colonies were replica-plated onto nitrocellulose filters and scored for β-gal activity by incubation with X-Gal. Open boxes or triangles indicate that when tested against either 2.1 or 4.1, the mutant had activity equivalent to that of the wild-type (WT) Pr55^gag.
(§2) To localize the portion of Gag that mediates binding to the CyPs, the effect on binding of mutations in the Pr55^gag coding sequence was examined. […] Each of these plasmids encodes a stable fusion protein of the expected size detected on Western blot (Luban et al., 1993). […]

[6] = test system: CyPA; assay: Yeast GAL4 two hybrid, Gag/mutant fusions versus clone 2.1 (CyPA); format: cell-based, Human; settings: versus 2.1 / CyPA
From the text: as §1, §2

[7] = test system: lymphocyte; settings: Viscidi et al., 1989; cited from earlier work

| Molecule | binding to and inhibiting CN phosphatase activity as FKBP complex [1] | two hybrid interaction with CyPB (in words) [5] | two hybrid interaction with CyPA (in words) [6] | other results |
| --- | --- | --- | --- | --- |
| C=CC[C@@H]1/C=C(\C)C[C@H](C)C[C@H](OC)[C@H]2O[C@@](O)(C(=O)C(=O)N3CCCC[C@H]3C(=O)O[C@H](/C(C)=C/[C@@H]3CC[C@@H](O)[C@H](OC)C3)[C@H](C)[C@@H](O)CC1=O)[C@H](C)C[C@@H]2OC [FK506] | capable of binding to and inhibiting the phosphatase activity of CN |  |  |  |
| C/C=C/C[C@@H](C)[C@@H](O)C1C(=O)N[C@@H](CC)C(=O)N(C)CC(=O)N(C)[C@@H](CC(C)C)C(=O)N[C@@H](C(C)C)C(=O)N(C)[C@@H](C)C(=O)N[C@@H](C)C(=O)N[C@H](C)C(=O)N(C)[C@@H](CC(C)C)C(=O)N(C)[C@@H](CC(C)C)C(=O)N(C)[C@@H](C(C)C)C(=O)N1C (stereo partly shown) [MeAla-CsA] (cyclo(A[dA][NMeL][NMeL][NMeV][ξNMeBmt][Abu][Sar][NMeL]V[NMeA])) |  |  |  | binding to CyPs [2]: bind to CyPs; suppression of T cell activation [3]: do not suppress T cell activation |
| CO[C@H]1C[C@@H]2CC[C@@H](C)[C@@](O)(O2)C(=O)C(=O)N2CCCC[C@H]2C(=O)O[C@H]([C@H](C)C[C@@H]2CC[C@@H](O)[C@H](OC)C2)CC(=O)[C@H](C)/C=C(\C)[C@@H](O)[C@@H](OC)C(=O)[C@H](C)C[C@H](C)/C=C/C=C/C=C/1C [Rapamycin] | not capable of binding CN |  |  | competition with FK506 for binding to FKBP [4]: competes with FK506 for binding to FKBP |
| MPMV pr76^gag: Gag polyprotein of Mason-Pfizer monkey virus |  | no detectable activity | no detectable activity |  |
| MoMLV Pr65^gag: Gag polyprotein of Moloney murine leukemia virus |  | no detectable activity | no detectable activity |  |
| B1 |  |  |  | antigen-stimulated lymphocyte proliferation [7]: inhibits |

From US5773225A, “Screening method for the identification of compounds capable of abrogation HIV-1 gag-cyclophilin complex formation” (The Trustees of Columbia University in the City of New York, priority 1994, dated 1998)
